Data published in PubChem BioAssay AID328 (DTP/NCI, 2004).
Several values for one entry are separate records, joined by “and”; a condition that tells them apart may be missing. Equal values may be shown once. Toxic doses and inconclusive results are not listed.

Tested on: BDF1 mice, P388 leukemia ip, median survival T/C
Assay: NCI In Vivo Anticancer Drug Screen. Data for tumor model P388 Leukemia (intraperitoneal) in B6D2F1 (BDF1) mice
Details: endpoint: median survival time, higher = longer survival
How it was run: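 T/C = treated-group survival ÷ vehicle-control survival; tumour transplanted into mice before dosing.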

[1] = dose: 6.25 mg/kg/injection, schedule: Q04DX003 (ip), vehicle: saline
[2] = dose: 12.5 mg/kg/injection, schedule: Q04DX003 (ip), vehicle: saline
[3] = dose: 12.5 mg/kg/injection, schedule: Q01DX009 (ip), vehicle: saline with Tween-80
[4] = dose: 25.0 mg/kg/injection, schedule: Q01DX009 (ip), vehicle: saline with Tween-80
[5] = dose: 50.0 mg/kg/injection, schedule: Q01DX009 (ip), vehicle: saline with Tween-80
[6] = dose: 100.0 mg/kg/injection, schedule: Q01DX009 (ip), vehicle: saline with Tween-80
[7] = dose: 200.0 mg/kg/injection, schedule: Q01DX009 (ip), vehicle: saline with Tween-80
[8] = dose: 50.0 mg/kg/injection, schedule: Q01DX001 (ip), vehicle: Klucel (hydroxypropylcellulose) (HPC)
[9] = dose: 100.0 mg/kg/injection, schedule: Q01DX001 (ip), vehicle: Klucel (hydroxypropylcellulose) (HPC)
[10] = dose: 200.0 mg/kg/injection, schedule: Q01DX001 (ip), vehicle: Klucel (hydroxypropylcellulose) (HPC)
[11] = dose: 50.0 mg/kg/injection, schedule: Q04DX002 (ip), vehicle: saline with Tween-80
[12] = dose: 100.0 mg/kg/injection, schedule: Q04DX002 (ip), vehicle: saline with Tween-80
[13] = dose: 100.0 mg/kg/injection, schedule: Q01DX001 (ip), vehicle: saline with Tween-80
[14] = dose: 200.0 mg/kg/injection, schedule: Q01DX001 (ip), vehicle: saline with Tween-80
[15] = dose: 400.0 mg/kg/injection, schedule: Q01DX001 (ip), vehicle: saline with Tween-80
[16] = dose: 100.0 mg/kg/injection, schedule: Q04DX003 (ip), vehicle: saline with Tween-80
[17] = dose: 200.0 mg/kg/injection, schedule: Q04DX003 (ip), vehicle: saline sonified
[18] = dose: 100.0 mg/kg/injection, schedule: Q01DX009 (ip), vehicle: Klucel (hydroxypropylcellulose) (HPC)
[19] = dose: 200.0 mg/kg/injection, schedule: Q01DX009 (ip), vehicle: Klucel (hydroxypropylcellulose) (HPC)
[20] = dose: 400.0 mg/kg/injection, schedule: Q01DX009 (ip), vehicle: Klucel (hydroxypropylcellulose) (HPC)
[21] = dose: 50.0 mg/kg/injection, schedule: Q01DX009 (ip), vehicle: saline
[22] = dose: 100.0 mg/kg/injection, schedule: Q01DX009 (ip), vehicle: saline
[23] = dose: 200.0 mg/kg/injection, schedule: Q01DX009 (ip), vehicle: saline
[24] = dose: 200.0 mg/kg/injection, schedule: Q04DX003 (ip), vehicle: saline with Tween-80

N=C(N)c1cn(C2OC(CO)C(O)C2O)c2ncnc(N)c12 (stereo not given)
T/C (dose: 0.44 mg/kg/injection, schedule: Q01DX009 (ip), vehicle: saline): 156 % of control
T/C (dose: 0.44 mg/kg/injection, schedule: Q04DX003 (ip), vehicle: saline): 102 % of control
T/C (dose: 0.66 mg/kg/injection, schedule: Q01DX009 (ip), vehicle: saline): 164 % of control
T/C (dose: 0.66 mg/kg/injection, schedule: Q04DX003 (ip), vehicle: saline): 109 % of control
T/C (dose: 1.0 mg/kg/injection, schedule: Q01DX009 (ip), vehicle: Klucel (hydroxypropylcellulose) (HPC)): 160 % of control
T/C (dose: 1.0 mg/kg/injection, schedule: Q01DX009 (ip), vehicle: saline): 162 % of control
T/C (dose: 1.0 mg/kg/injection, schedule: Q04DX003 (ip), vehicle: saline): 100 % of control
T/C (dose: 1.5 mg/kg/injection, schedule: Q01DX009 (ip), vehicle: saline): 173 % of control
T/C (dose: 3.13 mg/kg/injection, schedule: Q01DX009 (ip), vehicle: saline): 202 % of control
T/C [1]: 154 % of control
T/C (dose: 8.0 mg/kg/injection, schedule: Q01DX009 (ip), vehicle: Klucel (hydroxypropylcellulose) (HPC)): 90 % of control and 105 % of control
T/C (dose: 12.5 mg/kg/injection, schedule: Q01DX009 (ip), vehicle: saline): 86 % of control
T/C [2]: 177 % of control
T/C (dose: 16.5 mg/kg/injection, schedule: Q04DX003 (ip), vehicle: saline): 159 % of control and 181 % of control
T/C (dose: 25.0 mg/kg/injection, schedule: Q04DX003 (ip), vehicle: saline): 181 % of control and 190 % of control
T/C (dose: 37.5 mg/kg/injection, schedule: Q04DX003 (ip), vehicle: saline): 181 % of control

COc1cc(Nc2c3ccccc3nc3ccccc23)cc(OC)c1OC
T/C [3]: 97 % of control and 99 % of control
T/C [4]: 112 % of control
T/C [5]: 109 % of control and 115 % of control

O=C(NC1CCCCC1)N(c1ccccc1)c1nnc(-c2cccc([N+](=O)[O-])c2)s1
T/C [5]: 104 % of control
T/C [6]: 95 % of control
T/C [7]: 115 % of control

C=CC(C#N)(C=C)C=C
T/C [5]: 104 % of control

O=C1C(O)=Cc2cn(CCO)c(=O)c3ccc(-c4ccccc4)c1c23
T/C [8]: 100 % of control
T/C [9]: 100 % of control
T/C [10]: 104 % of control

CCCC/C(C=O)=C\NC(=O)Nc1ccccc1
T/C [11]: 100 % of control
T/C [12]: 90 % of control
T/C (dose: 200.0 mg/kg/injection, schedule: Q04DX002 (ip), vehicle: saline with Tween-80): 98 % of control

NC(CS(=O)(=O)c1ccc(N(CCCl)CCCl)cc1)C(=O)O (stereo not given)
T/C [13]: 108 % of control
T/C [14]: 101 % of control
T/C [15]: 90 % of control

COc1ccc2nc(N)n(C(=O)c3ccccc3)c(=O)c2c1
T/C [13]: 101 % of control
T/C [14]: 109 % of control
T/C [15]: 109 % of control

CCCCCCCCCCCCCCCCNC(=S)Nc1ccc(C(=O)O)cc1
T/C [8]: 113 % of control
T/C [9]: 109 % of control
T/C [10]: 100 % of control

N#CN=CN1CCN(c2ccccn2)CC1
T/C [5]: 91 % of control
T/C [6]: 90 % of control
T/C [7]: 93 % of control

C1CN(CC2COC(CN3CCOCC3)CO2)CCO1 (stereo not given)
T/C (dose: 100.0 mg/kg/injection, schedule: Q04DX003 (ip), vehicle: saline): 114 % of control
T/C (dose: 200.0 mg/kg/injection, schedule: Q04DX003 (ip), vehicle: saline): 104 % of control
T/C (dose: 400.0 mg/kg/injection, schedule: Q04DX003 (ip), vehicle: saline): 104 % of control

O=[N+]([O-])/C=C/c1ccc2ccccc2c1
T/C (dose: 88.0 mg/kg/injection, schedule: Q04DX003 (ip), vehicle: saline sonified): 116 % of control
T/C (dose: 100.0 mg/kg/injection, schedule: Q01DX009 (ip), vehicle: saline sonified): 100 % of control
T/C [16]: 120 % of control
T/C (dose: 132.0 mg/kg/injection, schedule: Q04DX003 (ip), vehicle: saline sonified): 116 % of control
T/C [17]: 111 % of control
T/C (dose: 300.0 mg/kg/injection, schedule: Q04DX003 (ip), vehicle: saline sonified): 116 % of control
T/C (dose: 400.0 mg/kg/injection, schedule: Q04DX003 (ip), vehicle: saline with Tween-80): 90 % of control

CCOC(=O)C1(C(=O)O)CC2C(C)C=CC(C)C2C1 (stereo not given)
T/C [18]: 95 % of control
T/C [19]: 110 % of control
T/C [20]: 100 % of control

NN=C(NN)NN
T/C [21]: 105 % of control
T/C [22]: 105 % of control
T/C [23]: 96 % of control

CC(=O)OC1CC(OC2C(O)CC(OC3C(O)CC(OC4CCC5(C)C(CCC6C5CCC5(C)C(C7=CC(=O)OC7)CCC65O)C4)OC3C)OC2C)OC(C)C1OC1OC(CO)C(O)C(O)C1O (stereo not given)
T/C (dose: 5.0 mg/kg/injection, schedule: Q01DX010 (ip), vehicle: carboxymethylcellulose (CMC)): 90 % of control

COc1ccc(C(=O)CCCCl)cc1
T/C [18]: 100 % of control
T/C [19]: 110 % of control
T/C [20]: 95 % of control

CC1(C)OCC(C2OC3OC(C)(C)OC3C2OP(=O)(N2CC2)N2CC2)O1 (stereo not given)
T/C [5]: 103 % of control
T/C [6]: 115 % of control
T/C [7]: 123 % of control

Clc1ccc(N=Cc2ccc(C=Nc3ccc(Cl)c(Cl)c3)cc2)cc1Cl
T/C (dose: 100.0 mg/kg/injection, schedule: Q04DX003 (ip), vehicle: Klucel (hydroxypropylcellulose) (HPC)): 100 % of control
T/C (dose: 200.0 mg/kg/injection, schedule: Q04DX003 (ip), vehicle: Klucel (hydroxypropylcellulose) (HPC)): 90 % of control
T/C (dose: 400.0 mg/kg/injection, schedule: Q04DX003 (ip), vehicle: Klucel (hydroxypropylcellulose) (HPC)): 100 % of control

C[N-]c1nnnn1Cc1ccccc1.[Au+].c1ccc([PH+](c2ccccc2)c2ccccc2)cc1
T/C (dose: 25.0 mg/kg/injection, schedule: Q04DX002 (ip), vehicle: saline with Tween-80): 109 % of control
T/C [11]: 102 % of control
T/C [12]: 116 % of control

C[N+]1(C)CCCC1
T/C [1]: 100 % of control
T/C [2]: 100 % of control

CS(=O)(=O)OCCN(CCOS(C)(=O)=O)c1ccc(C=Nc2ccc3oc(=O)ccc3c2)cc1
T/C [16]: 212 % of control
T/C (dose: 132.0 mg/kg/injection, schedule: Q04DX003 (ip), vehicle: saline with Tween-80): 165 % of control
T/C [24]: 243 % of control

CCC(CO)N1CNC(=S)NC1 (stereo not given)
T/C [21]: 97 % of control
T/C [22]: 92 % of control
T/C [23]: 108 % of control

CC1(C)CC(=O)C=C(NC2CCCCC2)C1
T/C (dose: 50.0 mg/kg/injection, schedule: Q04DX003 (ip), vehicle: saline sonified): 90 % of control
T/C (dose: 100.0 mg/kg/injection, schedule: Q04DX003 (ip), vehicle: saline sonified): 109 % of control
T/C [17]: 100 % of control

ClC(Cl)(Cl)C(N1CCN(c2ccccc2)CC1)N1CCN(c2ccccc2)CC1
T/C [5]: 104 % of control
T/C [6]: 100 % of control
T/C [7]: 95 % of control

CC1(C)CCC(C#N)=C1N
T/C [3]: 95 % of control
T/C [4]: 91 % of control
T/C [5]: 95 % of control

Oc1ccccc1C=NC1CCCCC1.Oc1ccccc1C=NC1CCCCC1.[Co+2]
T/C (dose: 50.0 mg/kg/injection, schedule: Q01DX001 (ip), vehicle: saline sonified): 90 % of control
T/C (dose: 100.0 mg/kg/injection, schedule: Q01DX001 (ip), vehicle: saline sonified): 109 % of control
T/C (dose: 200.0 mg/kg/injection, schedule: Q01DX001 (ip), vehicle: saline sonified): 109 % of control

CCN=C(N)Nc1ccc(NC(=O)c2ccc(C(=O)Nc3ccc(NC(N)=NCC)cc3)cc2)cc1
T/C (dose: 16.5 mg/kg/injection, schedule: Q04DX003 (ip), vehicle: saline with Tween-80): 213 % of control
T/C (dose: 25.0 mg/kg/injection, schedule: Q04DX003 (ip), vehicle: saline with Tween-80): 218 % of control
T/C (dose: 37.5 mg/kg/injection, schedule: Q04DX003 (ip), vehicle: saline with Tween-80): 109 % of control
T/C [16]: 168 % of control
T/C [24]: 86 % of control
